According to ChEMBL document CHEMBL1201862, “PubChem BioAssay data set” (2004):
Activity calls are given as the source filed them.

Columns and labels:
[1] = CEM21 lymphoblast cell cytotoxicity, dose response, cytotoxicity control for viral fusion inhibitor project, CellTiter-Glo luminescence, cherry-picked (AID 652042); type: functional, cell-based;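 note: potency for signal decrease meaning cytotoxicity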
[2] = molecular target: T1, Replicative DNA helicase DnaB (Mycobacterium tuberculosis, UniProt P9WMR3); test: DnaB Intein secondary assay Measured in Biochemical System Using Plate Reader - 2047-04_Inhibitor_Dose_DryPowder_Activity. [Related pubchem assays (depositor defined):AID2223]
T1 sequence (P9WMR3 whole entry): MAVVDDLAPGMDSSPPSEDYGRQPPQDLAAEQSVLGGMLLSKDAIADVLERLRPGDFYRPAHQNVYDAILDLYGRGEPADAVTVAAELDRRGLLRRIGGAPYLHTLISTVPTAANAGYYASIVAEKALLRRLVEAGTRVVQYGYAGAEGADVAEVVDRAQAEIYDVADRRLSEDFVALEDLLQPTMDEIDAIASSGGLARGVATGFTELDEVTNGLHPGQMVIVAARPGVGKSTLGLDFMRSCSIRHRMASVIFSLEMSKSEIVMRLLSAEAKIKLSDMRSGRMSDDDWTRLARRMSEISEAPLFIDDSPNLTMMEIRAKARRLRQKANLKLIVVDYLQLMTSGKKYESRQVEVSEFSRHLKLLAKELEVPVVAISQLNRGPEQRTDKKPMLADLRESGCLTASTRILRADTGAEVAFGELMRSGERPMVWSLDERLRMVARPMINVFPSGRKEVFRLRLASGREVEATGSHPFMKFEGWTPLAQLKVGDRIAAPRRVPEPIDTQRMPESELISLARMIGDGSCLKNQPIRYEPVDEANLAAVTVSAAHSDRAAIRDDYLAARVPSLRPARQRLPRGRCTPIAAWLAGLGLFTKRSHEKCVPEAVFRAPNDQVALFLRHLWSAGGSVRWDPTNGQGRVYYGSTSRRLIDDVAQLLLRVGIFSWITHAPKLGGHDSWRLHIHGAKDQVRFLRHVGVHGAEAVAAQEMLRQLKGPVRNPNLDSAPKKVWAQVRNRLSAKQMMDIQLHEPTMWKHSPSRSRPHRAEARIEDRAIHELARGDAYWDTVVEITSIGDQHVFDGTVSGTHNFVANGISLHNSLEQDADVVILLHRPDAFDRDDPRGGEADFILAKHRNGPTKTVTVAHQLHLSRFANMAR

[3] = Luminescence-based dose response cell-based high throughput screening assay for cytotoxic compounds using the IEC-6 intestinal epithelial cell line. [Related pubchem assays: 1858 (Summary AID.), 1825 (Counterscreen.), 1907 (Confirmation screen.)]; type: functional
Caspase-6 = molecular target: T2, Caspase-6 (Homo sapiens, UniProt P55212); test: human caspase-6 inhibitors, dose response, biochemical, VEID-R110 fluorescence, cherry-pick (AID 720632)
T2 sequence (P55212 whole entry): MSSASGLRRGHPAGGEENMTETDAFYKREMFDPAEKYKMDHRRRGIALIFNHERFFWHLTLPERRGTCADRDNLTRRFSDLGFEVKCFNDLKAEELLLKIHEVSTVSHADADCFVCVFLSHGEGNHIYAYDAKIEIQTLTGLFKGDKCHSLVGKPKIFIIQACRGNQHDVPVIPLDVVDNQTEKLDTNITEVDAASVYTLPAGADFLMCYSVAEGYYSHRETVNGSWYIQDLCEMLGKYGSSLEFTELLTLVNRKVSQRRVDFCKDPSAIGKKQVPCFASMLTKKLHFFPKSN

Caspase-9 = Caspase-9 (Homo sapiens, UniProt P55211); test: caspase-9 enzyme inhibition, dose response, selectivity assay for caspase-6 inhibitor project, biochemical, fluorescence, plate reader, cherry-picked samples (AID 743293)
Chain of Caspase-9 (P55211 1-315 limits assumed): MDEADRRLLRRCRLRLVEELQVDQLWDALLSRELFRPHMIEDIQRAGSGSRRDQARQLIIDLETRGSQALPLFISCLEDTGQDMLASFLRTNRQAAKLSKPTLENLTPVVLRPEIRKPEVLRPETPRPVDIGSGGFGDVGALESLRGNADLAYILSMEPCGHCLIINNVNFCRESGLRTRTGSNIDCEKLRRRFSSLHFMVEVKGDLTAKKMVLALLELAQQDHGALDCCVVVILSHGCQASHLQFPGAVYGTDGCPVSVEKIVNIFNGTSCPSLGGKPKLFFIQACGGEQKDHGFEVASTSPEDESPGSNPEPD
Chain of Caspase-9 (P55211 331-416 limits assumed): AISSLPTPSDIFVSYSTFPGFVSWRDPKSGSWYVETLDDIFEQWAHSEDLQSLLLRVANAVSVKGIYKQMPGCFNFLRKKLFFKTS

ORF 73 = ORF 73 (Human herpesvirus 8, UniProt O40947); test: inhibitors of C-LANA binding to LBS DNA, dose response, biochemical, fluorescence polarization, cherry-picked samples (AID 504725); design: species or system Human gammaherpesvirus 8;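 note: fluorescence polarization of a labeled DNA duplex reporting LANA DNA binding; potency is for inhibitors that block LANA binding to the DNA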
Chain of ORF 73 (O40947 whole entry): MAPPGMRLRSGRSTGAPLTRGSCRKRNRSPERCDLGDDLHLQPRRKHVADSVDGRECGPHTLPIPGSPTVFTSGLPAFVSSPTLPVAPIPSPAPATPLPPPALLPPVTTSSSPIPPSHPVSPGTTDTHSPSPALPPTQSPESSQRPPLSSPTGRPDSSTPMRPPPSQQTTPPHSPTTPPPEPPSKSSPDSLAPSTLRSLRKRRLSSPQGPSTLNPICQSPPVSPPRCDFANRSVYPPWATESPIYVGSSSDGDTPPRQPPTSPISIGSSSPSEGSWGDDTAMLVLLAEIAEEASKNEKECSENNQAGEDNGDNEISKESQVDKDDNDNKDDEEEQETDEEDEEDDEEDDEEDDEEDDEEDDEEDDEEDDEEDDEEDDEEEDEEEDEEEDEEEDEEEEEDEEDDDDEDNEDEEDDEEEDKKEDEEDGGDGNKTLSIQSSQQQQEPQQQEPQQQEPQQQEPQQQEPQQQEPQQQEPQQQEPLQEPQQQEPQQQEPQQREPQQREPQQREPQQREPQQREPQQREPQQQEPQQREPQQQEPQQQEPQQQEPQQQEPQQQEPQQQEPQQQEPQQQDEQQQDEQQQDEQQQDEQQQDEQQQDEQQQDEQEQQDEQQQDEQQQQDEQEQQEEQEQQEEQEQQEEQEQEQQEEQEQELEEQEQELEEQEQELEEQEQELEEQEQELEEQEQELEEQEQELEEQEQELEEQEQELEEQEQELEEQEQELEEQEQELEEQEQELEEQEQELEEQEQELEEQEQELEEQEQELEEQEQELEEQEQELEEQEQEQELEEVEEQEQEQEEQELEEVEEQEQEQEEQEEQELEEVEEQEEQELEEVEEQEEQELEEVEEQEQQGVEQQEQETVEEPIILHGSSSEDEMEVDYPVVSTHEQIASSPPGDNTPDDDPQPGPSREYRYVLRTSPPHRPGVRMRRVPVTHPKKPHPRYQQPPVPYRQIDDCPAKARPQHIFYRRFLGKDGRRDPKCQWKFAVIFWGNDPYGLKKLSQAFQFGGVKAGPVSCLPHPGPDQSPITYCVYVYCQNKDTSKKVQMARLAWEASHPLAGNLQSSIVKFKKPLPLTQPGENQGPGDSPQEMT

HeLa = test: HeLa cell cytotoxicity, dose response, cytotoxicity control, 24 h, cherry-picked samples (AID 504726); type: functional, cell-based; details: Homo sapiens;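 note: potency for cytotoxicity as loss of luminescence signal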
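Throughout, for IC50: cell viability measured after two days of compound exposure.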

With `CCCCCCCCCCOC(=O)C[n+]1c(COc2ccccc2OC)n(C)c2ccccc21` the AC50 [1] was 6910 nM (active).

With `Cc1oc2c(c1C(=O)NCc1cccnc1)C(=O)c1ccccc1C2=O` the AC50 [2] was 1150 nM (active) and the IC50 [3] was 158 nM (active).

For `O=c1ccc2c(-c3ccccc3S(=O)(=O)O)c3ccc(O)c(O)c3oc-2c1O` [PYROGALLOL RED], the AC50 (Caspase-6) was 192 nM (active), the AC50 (Caspase-9) was > 70000 nM (inactive) and the AC50 (ORF 73) was 526 nM (active). The AC50 (HeLa) was 8940 nM (active).
